# Experiments:
# [1] = system: Staphylococcus aureus EDA 209P; test: Antibacterial spectrum, agar plate dilution method; assay type: cell-based; conditions: 0.5% peptone agar, read-out: Minimum inhibitory concentration
# [2] = system: Bacillus subtilis PCI 219; test: Antibacterial spectrum, agar plate dilution method; assay type: cell-based; conditions: PCI219, 0.5% peptone agar, read-out: Minimum inhibitory concentration
# [3] = system: Bacillus subtilis ATCC 6633; test: Antibacterial spectrum, agar plate dilution method; assay type: cell-based; conditions: ATCC6633, 0.5% peptone agar, read-out: Minimum inhibitory concentration
# [4] = system: Bacillus cereus IAM 1072; test: Antibacterial spectrum, agar plate dilution method; assay type: cell-based; conditions: IAM1072, 0.5% peptone agar, read-out: Minimum inhibitory concentration
# [5] = system: Bacillus polymyxa IAM 1210; test: Antibacterial spectrum, agar plate dilution method; assay type: cell-based; conditions: Paenibacillus polymyxa, IAM1210, 0.5% peptone agar, read-out: Minimum inhibitory concentration
# [6] = system: Bacillus megaterium ATCC 14945; test: Antibacterial spectrum, agar plate dilution method; assay type: cell-based; conditions: Priestia megaterium, ATCC14945, 0.5% peptone agar, read-out: Minimum inhibitory concentration
# [7] = system: Bacillus licheniformis IFO 12107; test: Antibacterial spectrum, agar plate dilution method; assay type: cell-based; conditions: IFO12107, 0.5% peptone agar, read-out: Minimum inhibitory concentration
# [8] = system: Micrococcus flavus ATCC 10240; test: Antibacterial spectrum, agar plate dilution method; assay type: cell-based; conditions: ATCC10240, 0.5% peptone agar, read-out: Minimum inhibitory concentration
# [9] = system: Micrococcus luteus ATCC 9341; test: Antibacterial spectrum, agar plate dilution method; assay type: cell-based; conditions: ATCC9341, 0.5% peptone agar, read-out: Minimum inhibitory concentration
# [10] = system: Escherichia coli NIHJ; test: Antibacterial spectrum, agar plate dilution method; assay type: cell-based; conditions: 0.5% peptone agar, read-out: Minimum inhibitory concentration
# [11] = system: Escherichia coli K-12; test: Antibacterial spectrum, agar plate dilution method; assay type: cell-based; conditions: K12, 0.5% peptone agar, read-out: Minimum inhibitory concentration
# [12] = system: Klebsiella pneumoniae PCI 602; test: Antibacterial spectrum, agar plate dilution method; assay type: cell-based; conditions: PCI602, 0.5% peptone agar, read-out: Minimum inhibitory concentration
# [13] = system: Proteus morganii IFO 3168; test: Antibacterial spectrum, agar plate dilution method; assay type: cell-based; conditions: Morganella morganii, IFO3168, 0.5% peptone agar, read-out: Minimum inhibitory concentration
# [14] = system: Proteus vulgaris IFO 3045; test: Antibacterial spectrum, agar plate dilution method; assay type: cell-based; conditions: IFO3045, 0.5% peptone agar, read-out: Minimum inhibitory concentration
# [15] = system: Proteus mirabilis IFO 3849; test: Antibacterial spectrum, agar plate dilution method; assay type: cell-based; conditions: IFO3849, 0.5% peptone agar, read-out: Minimum inhibitory concentration
# [16] = system: Pseudomonas aernginosa IFO 3445; test: Antibacterial spectrum, agar plate dilution method; assay type: cell-based; conditions: IFO3445, 0.5% peptone agar, read-out: Minimum inhibitory concentration
# [17] = system: Salmonella typhi 901 (MS-1); test: Antibacterial spectrum, agar plate dilution method; assay type: cell-based; conditions: Salmonella enterica, read-out: Minimum inhibitory concentration
# [18] = system: Salmonella paratyphi 1015 (MS-1); test: Antibacterial spectrum, agar plate dilution method; assay type: cell-based; conditions: Salmonella enterica, read-out: Minimum inhibitory concentration
# [19] = system: Salmonella enteritidis G14 (MS-1); test: Antibacterial spectrum, agar plate dilution method; assay type: cell-based; conditions: Salmonella enterica, 0.5% peptone agar, read-out: Minimum inhibitory concentration
# [20] = system: Enterobacter aerogenes ATCC 13048 (MS-1); test: Antibacterial spectrum, agar plate dilution method; assay type: cell-based; conditions: Klebsiella aerogenes, ATCC13048, 0.5% peptone agar, read-out: Minimum inhibitory concentration
# [21] = system: Serratia marcescens GM 6484; test: Antibacterial spectrum, agar plate dilution method; assay type: cell-based; conditions: GM6484, 0.5% peptone agar, read-out: Minimum inhibitory concentration
# [22] = system: Candida albicans NIH 3147; test: Antibacterial spectrum, agar plate dilution method; assay type: cell-based; conditions: NIH3147, 0.5% peptone agar, read-out: Minimum inhibitory concentration
# [23] = system: Mycobacterium smegmatis ATCC 607; test: Antibacterial spectrum, agar plate dilution method; assay type: cell-based; conditions: Mycolicibacterium smegmatis, ATCC607, 0.5% peptone agar, read-out: Minimum inhibitory concentration
# [24] = system: gram-positive bacteria; test: Antibacterial spectrum, summary in words; assay type: cell-based; conditions: S. aureus FDA 209P, Bacillus including B. subtilis PCI 219 and B. cereus IAM 1072, Micrococcus flavus ATCC 10240
# [25] = system: gram-negative bacteria; test: Antibacterial spectrum, summary in words; assay type: cell-based; conditions: agar plate dilution method
# [26] = system: HeLa cell; test: Anti-HeLa cell activity; assay type: cell-based; conditions: for Cells/plate: 72 hours after the addition
# Procedure: *The number of cells 72 hours after the addition of NK840218.
# [27] = system: herpes simplex virus-I (HSV-I); test: Antiviral activity, cytopathic effect of HSV-I on Vero cells; assay type: cell-based
# Procedure: A medium containing a definite amount of NK84-0218 and herpes simplex virus-I (HSV-I) 5-10 TC ID50 are added onto a single layer of vero cells in a microplate having 96 wells and cultured in a 5% by volume carbon dioxide incubator at 37° C. for 96 to 120 hours. Then the antiviral activity of the test substance is determined by microscopically observing the cytopathic effect (CPE) of the HSV-I on the Vero cells. The inhibition is taken as effective when no CPE is observed in a well. For example, when CPE is observed in one well among ten at the same concentration, the inhibition ratio is 90%.
# [28] = Acute toxicity on mice; assay type: in vivo
# [29] = Solubility in solvents; assay type: physicochemical
# From the text: In order to isolate the antibiotic of the present invention, the culturing broth is purified in a manner conventionally used in isolating a metabolite of a microorganism from its culturing broth. […] For example, the culturing broth is adjusted to a pH value of 3.5 to 6.5, preferably 4 to 4.5, adsorbed by powdery active carbon, washed with water and eluted with a 50% aqueous acetone and the active fraction thus obtained is concentrated and lyophilized to give a brown crude powder. Then this powder is dissolved in methanol and insoluble substances are removed. The soluble portion is dried, dissolved in water, adsorbed by an active carbon column, washed with water and subjected to acetone linear concentration gradient elution with water and 50% aqueous acetone. The obtained active fraction is concentrated and lyophilized. The pale brown powder containing NK84-0218 thus obtained is dissolved in a small amount of water and packed into an Avicel column. Then it is developed with an aqueous alcohol and eluted with increasing the water content stepwise. The active fractions thus obtained are combined, concentrated and lyophilized. Subsequently the obtained powder is dissolved in a small amount of water and packed into an SP Sephadex® C-25(Na^+) column previously equilibrated with 0.02M sodium chloride. The active fractions eluted with 0.02M sodium chloride are desalted on active carbon to give a colorless powder. The powder thus purified is treated with water or an aqueous alcohol to give NK84-0218 in the form of colorless needles. The titer during the cultivation is determined by plate cup assay with Bacillus subtilis PCI 219.
smiles,measurement,setting,value
Nc1ncnc2c1ncn2C1OC(CO)C1CO (centres unmarked) [NK84-0218],MIC,[1],< 0.1 µg/mL
same,MIC,[2],< 0.1 µg/mL
same,MIC,[3],< 0.1 µg/mL
same,MIC,[4],< 0.1 µg/mL
same,MIC,[5],< 0.1 µg/mL
same,MIC,[6],1.56 µg/mL
same,MIC,[7],6.25 µg/mL
same,MIC,[8],6.25 µg/mL
same,MIC,[9],3.12 µg/mL
same,MIC,[10],> 100 µg/mL
same,MIC,[11],> 100 µg/mL
same,MIC,[12],> 100 µg/mL
same,MIC,[13],> 100 µg/mL
same,MIC,[14],> 100 µg/mL
same,MIC,[15],> 100 µg/mL
same,MIC,[16],> 100 µg/mL
same,MIC,[17],> 100 µg/mL
same,MIC,[18],> 100 µg/mL
same,MIC,[19],> 100 µg/mL
same,MIC,[20],> 100 µg/mL
same,MIC,[21],> 100 µg/mL
same,MIC,[22],> 100 µg/mL
same,MIC,[23],> 100 µg/mL
same,inhibiting the growth of gram-positive bacteria,[24],intense effects of inhibiting the growth
same,effect on gram-negative bacteria,[25],no effect
same,Cells/plate,[26]; 0.39 μg/ml,14.35 × 10^5
same,Cells/plate,[26]; 1.56 μg/ml,14.64 × 10^5
same,Cells/plate,[26]; 6.25 μg/ml,13.91 × 10^5
same,Cells/plate,[26]; 25 μg/ml,13.47 × 10^5
same,Cells/plate,[26]; 100 μg/ml,2.78 × 10^5
same,inhibition at 0.39 µg/mL,"[26]; Homo sapiens, HeLa, 0.39 μg/ml, 72 hours, read-out: Inhibition ratio",3.58%
same,inhibition at 1.56 µg/mL,"[26]; Homo sapiens, HeLa, 1.56 μg/ml, 72 hours, read-out: Inhibition ratio",1.26%
same,inhibition at 6.25 µg/mL,"[26]; Homo sapiens, HeLa, 6.25 μg/ml, 72 hours, read-out: Inhibition ratio",6.94%
same,inhibition at 25 µg/mL,"[26]; Homo sapiens, HeLa, 25 μg/ml, 72 hours, read-out: Inhibition ratio",10.2%
same,inhibition at 100 µg/mL,"[26]; Homo sapiens, HeLa, 100 μg/ml, 72 hours, read-out: Inhibition ratio",93.4%
same,IC50,"[26]; Homo sapiens, HeLa cell, 72 hours",~47 µg/mL
same,antiviral activity (in words),[27],exhibits an antiviral activity
same,acute toxicity compared with various known nucleoside antibiotics,[28]; i.v.,lower than those of various known nucleoside antibiotics
same,LD50,"[28]; mouse, in vivo, iv",≥ 100 mg/kg
same,Solubility,[29]; in dimethyl sulfoxide,soluble
same,Solubility,[29]; in ethanol,soluble
same,Solubility,[29]; in methanol,soluble
same,Solubility,"[29]; in other organic solvents such as propanol, acetone, ethyl acetate, ether and benzene",hardly or not soluble
same,Solubility,[29]; in water,soluble
